Measurements taken from patent US5670482A, “Neuropeptide Y antagonists” (Glaxo Wellcome Inc., priority 1992, dated 1997).
Positions of bridges follow the written chain, without caps; N, C: chain ends. Chains are numbered I, II in the order given. No end group written: not given here.

Test system: NPY-induced increase of perfusion pressure in isolated perfused rat kidney
Test: Isolated perfused rat kidney preparation
Conditions: antagonist infused during 5 min, read-out: IC50 for the inhibition of the NPY-induced increase of perfusion pressure
Method: Male CD rats (200-400 g) are anaesthetised with a mixture of Acepromazine (2.8 mg/kg) and Kenamine (112 mg/kg) injected i.p. The rat's abdomen is opened through the midline. The renal arteries and descending aorta are cleaned and, with minimal disruption of blood flow, one kidney is cannulated through the proximal renal artery using a stainless steel 20G blunt-tipped needle attached to Tygon tubing and a peristaltic pump. As soon as the first ligature is complete and perfusion of the kidney starts (10 ml/min) and the kidney is removed from the animal and placed in a constant temperature perfusion chamber. The perfusion pressure is followed by an on-line Statham pressure transducer and changes recorded in a Grass Polygraph.
Administration of Drugs: Neuropeptide Y and other agonists are administered by a single bolus injection (0.1 ml) through an injection port situated about 6 inches from the tip of the needle (approximately 0.3 ml, total volume). Antagonists are infused during 5 min (0.15 ml/min) into the kidney through an injection port situtated before the perfusion pump to allow for good mixing and constant concentration (dilution of 0.15 ml into 10 ml). […]
Results: Using the above experimental procedure we have determined the IC50 for the inhibition of the NPY-induced increase of perfusion pressure for: […]

IC50 [nM]	Substance
2.5	IleCysProCysTyrArgLeuArgTyr-NH2,Cyclic (2,2'),(4,4')-Disulfide Dimer (chain 1 ICPCYRLRY-NH2; chain 2 ICPCYRLRY-NH2; disulfide I:2-II:2, I:4-II:4; N-terminus assumed; SMILES CC[C@H](C)[C@H](N)C(=O)N[C@H]1CSSC[C@H](NC(=O)[C@@H](N)[C@@H](C)CC)C(=O)N2CCC[C@H]2C(=O)N[C@H](C(=O)N[C@@H](Cc2ccc(O)cc2)C(=O)N[C@@H](CCCNC(=N)N)C(=O)N[C@@H](CC(C)C)C(=O)N[C@@H](CCCNC(=N)N)C(=O)N[C@@H](Cc2ccc(O)cc2)C(N)=O)CSSC[C@@H](C(=O)N[C@@H](Cc2ccc(O)cc2)C(=O)N[C@@H](CCCNC(=N)N)C(=O)N[C@@H](CC(C)C)C(=O)N[C@@H](CCCNC(=N)N)C(=O)N[C@@H](Cc2ccc(O)cc2)C(N)=O)NC(=O)[C@@H]2CCCN2C1=O)
2.5	IleCysProCysTyrArgLeuArgTyr-NH2,Cyclic (2,4'),(4,2')-Disulfide Dimer (chain 1 ICPCYRLRY-NH2; chain 2 ICPCYRLRY-NH2; disulfide (positions not given here); not fully specified (bridges))
